# Molecular target: TRKA (Homo sapiens (Human), UniProt P04629)
# Test: Isolated TRK enzyme assay (HTRF KinEASE-TK), PV3144 TrkA enzyme assay
# Format: biochemical
# Settings: arithmetic mean where more than one reading
# In short: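 Kinase (recombinant His-TrkA cytoplasmic domain, ATP-preactivated 20 min) met compound 20 min, then biotinylated TK substrate (1 µM final) with Mg2+/DTT buffer; HTRF detection.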
# Chain of TRKA (P04629 441-796): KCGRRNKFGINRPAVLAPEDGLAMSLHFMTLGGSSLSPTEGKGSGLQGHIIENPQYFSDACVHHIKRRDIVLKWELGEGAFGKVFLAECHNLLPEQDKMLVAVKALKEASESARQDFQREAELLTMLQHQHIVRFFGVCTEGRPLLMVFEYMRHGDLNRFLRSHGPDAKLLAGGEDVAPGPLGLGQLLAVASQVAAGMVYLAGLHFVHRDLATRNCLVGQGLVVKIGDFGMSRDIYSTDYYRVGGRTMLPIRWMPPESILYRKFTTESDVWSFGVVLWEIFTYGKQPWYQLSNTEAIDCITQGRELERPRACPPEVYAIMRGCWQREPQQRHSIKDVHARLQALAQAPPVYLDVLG
row,IC50 [nM],SMILES
1,24.3,"CC(CO)n1cc(C(=O)c2cncc(NC(=O)Cn3cc(C(F)(F)F)cn3)c2)c2cncc(F)c21 (single isomer, unassigned) [Example 227, N-(5-{[7-fluoro-1-(1-hydroxypropan-2-yl)-1H-pyrrolo[3,2-c]pyridin-3-yl]carbonyl}pyridin-3-yl)-2-[4-(trifluoromethyl)-1H-pyrazol-1-yl]acetamide]"
2,5110,"Cc1nc(C)n(CC(=O)Nc2cc(C(=O)c3cn(C(C)C)c4ccncc34)ccn2)n1 [Example 112, 2-(3,5-dimethyl-1H-1,2,4-triazol-1-yl)-N-(4-{[1-(propan-2-yl)-1H-pyrrolo[3,2-c]pyridin-3-yl]carbonyl}pyridin-2-yl)acetamide]"
3,9.89,"CC(C)c1cn(CC(=O)Nc2cncc(C(=O)c3cn(C(C)(C)CO)c4ccncc34)c2)nn1 [Example 14, N-(5-{[1-(1-hydroxy-2-methylpropan-2-yl)-1H-pyrrolo[3,2-c]pyridin-3-yl]carbonyl}pyridin-3-yl)-2-[4-(propan-2-yl)-1H-1,2,3-triazol-1-yl]acetamide]"
4,33,"Cc1cc(C)n(CC(=O)Nc2cc(C(=O)c3cn(C(C)C)c4ccncc34)ccn2)n1 [Example 164, 2-(3,5-dimethyl-1H-pyrazol-1-yl)-N-(4-{[1-(propan-2-yl)-1H-pyrrolo[3,2-c]pyridin-3-yl]carbonyl}pyridin-2-yl)acetamide]"

# From US9163021B2, “Pyrrolo[3,2-c]pyridine tropomyosin-related kinase inhibitors” (Pfizer Limited, priority 2012, dated 2015)
